Experimental data from patent EP2966448B1, “METHOD FOR THE PREDICTION OR PROGNOSIS OF THE RESPONSE OF A HUMAN SUBJECT SUFFERING FROM CANCER TO TREATMENT WITH AN ANTAGONIST OF THE NK1 RECEPTOR” (priority 2013, dated 2014).
Read-outs that look alike come from different tables or passages of the source.

How the values were obtained:
Gastric carcinoma = assay: Inhibition of primary tumor cell cultures (48 hours) vs NK1 receptor immunostaining (Example 1); format: cell-based; conditions: Homo sapiens, 1 micromolar, read-out: Percentage of inhibition of cell cultures
Colon carcinoma = assay: as above; format: cell-based; conditions: Homo sapiens, 1 micromolar, read-out: Percentage of inhibition of cell cultures
Procedure: (§1) Cell cultures. To obtain tumor cells from human primary tumors we used the method described in De Bari et al. (De Bari et al. 2001). Briefly, small pieces of the tumors were digested into a hyaluronidase solution (Sigma-Aldrich, USA) at a concentration of 1 mg/ml during 15 minutes at 37°C, and then they were treated with 6 mg/ml of collagenase type IV (Invitrogen) during 2 hours at 37°C. Consecutively, cells were washed, and resuspended in the DMEM culture medium with high concentration of glucose (Dulbecco's Modified Eagle's Medium, Invitrogen) supplemented with 1% of antibiotics-antimycotics (Invitrogen) and with 1% of sodium pyruvate (Invitrogen), and the cells were seeded in culture slides at a concentration of 10.000 cells per square centimeter. When cells reached confluence, the adherent cells were separated using sterile trypsin at 0,5% (Invitrogen) and they were used among passages 3 and 9. For the assays shown next, tumor cells were seeded on slides at a concentration of 25.000 cells per well. A total of 6 wells containing the tumor cells were used as survival control. […] All the cultures were kept during 48 hours and later on recollected for their analysis.
(§2) Immunohistochemistry techniques. The presence of NK1 receptors was also analyzed using immunohistochemistry techniques. Briefly, a sample of each of the cultures of the cell lines used in the present invention, was centrifuged (5 minutes at 1.500 rpm) and the pellet obtained was dehydrated using increasing concentrations of ethanol and, finally, xylol. Then, said dehydrated samples were embedded in paraffin, creating a block of cells. Such paraffin blocks were cut with a microtome at 5 microns thickness, and were placed on microscope slides adequate to perform immunohistochemistry techniques. Consecutively, they were de-paraffinized by immersing them in xylol, to be finally hydrated using a solution containing decreasing concentrations of ethanol, and finally submerged them into water. […] After this, the samples were left to cool down at room temperature for 10 minutes. The endogenous peroxidase activity was blocked with 3% peroxide of hydrogen for 30 minutes at room temperature. After washing the samples with 0.05 M of Tris buffer, they were incubated with 10% non-immune pork serum at for 30 minutes at room temperature. To analyze the expression of NK1 receptors, the cellular samples were incubated in the presence of anti-NK1 antibodies (S8305, Sigma-Aldrich) diluted 1:1000, overnight at 4°C. Afterwards, the samples were washed in Tris buffer 0.05 M at room temperature. The next step was the addition of Envision System-HRP (Dako) reagents for 30 minutes at room temperature. Then, the samples were washed again in Tris buffer 0.05 M and the immunoreactivity was visualized through light microscopy with a chromogenic solution containing 3,3'-Diaminobenzidine (DAB+; Dako, USA). To differentiate the cell nuclei, they were slightly stained with hematoxylin. As negative control, it was used samples not incubated with the primary antibody anti-NK1, which was replaced by non-immune serum. All the samples were evaluated.
(§3) To value the immunostaining in each of the cases six cuts were performed to be analyzed by the immunohistochemistry technique. In each of the six cuts, it was counted cells in 20 fields (magnification 400x) using an Olympus microscope (model CX31). In each field it was counted the total number of cells and the number of cells presenting immunostaining, calculating afterwards the percentage of cells which presented immunostaining.

Breast carcinoma = assay: as above; format: cell-based; conditions: Homo sapiens, 1 micromolar, read-out: Percentage of inhibition of cell cultures
Procedure: as §1, §2, §3

[1] = test system: Carcinoma of the uterine cervix; assay: as above; format: cell-based; conditions: Homo sapiens, 1 micromolar, read-out: Percentage of inhibition of cell cultures
Procedure: as §1, §2, §3

[2] = test system: Lung carcinoma (small cell type); assay: as above; format: cell-based; conditions: Homo sapiens, 1 micromolar, read-out: Percentage of inhibition of cell cultures
Procedure: as §1, §2, §3

[3] = test system: Thyroid carcinoma (folliculary type); assay: as above; format: cell-based; conditions: Homo sapiens, 1 micromolar, read-out: Percentage of inhibition of cell cultures
Procedure: as §1, §2, §3

Fibrosarcoma = assay: as above; format: cell-based; conditions: Homo sapiens, 1 micromolar, read-out: Percentage of inhibition of cell cultures
Procedure: as §1, §2, §3

Neuroblastoma = assay: as above; format: cell-based; conditions: Homo sapiens, 1 micromolar, read-out: Percentage of inhibition of cell cultures
Procedure: as §1, §2, §3

Non Hodgkin Lymphoma B = assay: as above; format: cell-based; conditions: Homo sapiens, 1 micromolar, read-out: Percentage of inhibition of cell cultures
Procedure: as §1, §2, §3

Burkitt Lymphoma [4] = assay: as above; format: cell-based; conditions: Homo sapiens, 1 micromolar, read-out: Percentage of inhibition of cell cultures
Procedure: as §1, §2, §3

Hodgkin lymphoma = assay: as above; format: cell-based; conditions: Homo sapiens, 1 micromolar, read-out: Percentage of inhibition of cell cultures
Procedure: as §1, §2, §3

[5] = test system: Gastric carcinoma (Adenocarcinoma); assay: Inhibition of primary tumor cell cultures vs Kras mutation (Example 2); format: cell-based, human; conditions: Homo sapiens, Cases with Kras mutated; 100 micromolar; read-out: Percentage of inhibition of cell cultures
Procedure: (§4) Cell cultures. […] Briefly, small pieces of the tumors were digested into a hyaluronidase solution (Sigma-Aldrich, USA) at a concentration of 1 mg/ml during 15 minutes at 37°C, and then they were treated with 6 mg/ml of collagenase type IV (Invitrogen) during 2 hours at 37°C. Consecutively, cells were washed, and resuspended in the DMEM culture medium with high concentration of glucose (Dulbecco's Modified Eagle's Medium, Invitrogen) supplemented with 1% of antibiotics-antimycotics (Invitrogen) and with 1% of sodium pyruvate (Invitrogen), and the cells were seeded in culture slides at a concentration of 10.000 cells per square centimeter. When cells reached confluence, the adherent cells were separated using sterile trypsin at 0,5% (Invitrogen) and they were used among passages 3 and 9. For the assays shown next, tumor cells were seeded on slides at a concentration of 25.000 cells per well. A total of 6 wells containing the tumor cells were used as survival control. […] All the cultures were kept during 48 hours and later on recollected for their analysis.
(§5) In each case the presence or not of mutations in K-ras gene was determined.
(§6) To determine the existence of mutations in the K-ras gene DNA from cancer tumor cells was extracted from samples obtained from the different cancer tumor cells, using DNA extraction kits from Takara (Madison, WI, US) or Ambion (Huntingdon, Cambridgeshire, United Kingdom), following the manufacturer's instructions, and as it has been previously published (Di Fiore F, et al. 2007). Consecutively it was analyzed by sequencing the exon 2 of the KRAS gene, , by means of PCR amplification from previously extracted cancer tumor DNA, using the following sense primer (SEQ ID NO. 15): 5'-[sequence]-3' and anti-sense primer (SEQ ID NO. 16): 5'-[sequence]-3'. After the purification using the Qiagen extraction kit, the PCR products were sequenced using the Big Dye Terminator Kit V3.1 (Applied Biosystems, Foster City, CA, U.S.) and an ABI Prism 377 or 3100 DNA sequencer (Applied Biosystems). The presence of a heterozygous mutation in the KRAS gene in cancer tumor cells of the cultures was defined as the appearance of a mutant peak of a height of at least a third of the wild type. All the sequence analysis were executed at least twice in two independent PCR.
(§7) The antibody against NK1 receptor (Table 16) was used at 1/50 concentration. The percentages of inhibition are expressed in percentage of variation in relation to control ± standard deviation.

[6] = test system: Pancreatic carcinoma (Adenocarcinoma); assay: as above; format: cell-based, human; conditions: Homo sapiens, Cases with Kras mutated; 100 micromolar; read-out: Percentage of inhibition of cell cultures
Procedure: as §4, §5, §6, §7

[7] = test system: Breast carcinoma (ductal adenocarcinoma); assay: as above; format: cell-based, human; conditions: Homo sapiens, Cases with Kras mutated; 100 micromolar; read-out: Percentage of inhibition of cell cultures
Procedure: as §4, §5, §6, §7

[8] = test system: Ovarian carcinoma (Adenocarcinoma); assay: as above; format: cell-based, human; conditions: Homo sapiens, Cases with Kras mutated; 100 micromolar; read-out: Percentage of inhibition of cell cultures
Procedure: as §4, §5, §6, §7

Endometrium carcinoma = assay: as above; format: cell-based, human; conditions: Homo sapiens, Cases with Kras mutated; 100 micromolar; read-out: Percentage of inhibition of cell cultures
Procedure: as §4, §5, §6, §7

[9] = test system: Lung carcinoma (non small cell lung carcinoma); assay: as above; format: cell-based, human; conditions: Homo sapiens, Cases with Kras mutated; 100 micromolar; read-out: Percentage of inhibition of cell cultures
Procedure: (§8) To obtain tumor cells from human primary tumors we used the method described in De Bari et al. (De Bari et al. 2001). Briefly, small pieces of the tumors were digested into a hyaluronidase solution (Sigma-Aldrich, USA) at a concentration of 1 mg/ml during 15 minutes at 37°C, and then they were treated with 6 mg/ml of collagenase type IV (Invitrogen) during 2 hours at 37°C. Consecutively, cells were washed, and resuspended in the DMEM culture medium with high concentration of glucose (Dulbecco's Modified Eagle's Medium, Invitrogen) supplemented with 1% of antibiotics-antimycotics (Invitrogen) and with 1% of sodium pyruvate (Invitrogen), and the cells were seeded in culture slides at a concentration of 10.000 cells per square centimeter. When cells reached confluence, the adherent cells were separated using sterile trypsin at 0,5% (Invitrogen) and they were used among passages 3 and 9. For the assays shown next, tumor cells were seeded on slides at a concentration of 25.000 cells per well. A total of 6 wells containing the tumor cells were used as survival control. […] All the cultures were kept during 48 hours and later on recollected for their analysis.
as §5, §6, §7

[10] = test system: Urinary bladder carcinoma (transitional cell carcinoma); assay: as above; format: cell-based, human; conditions: Homo sapiens, Cases with Kras mutated; 100 micromolar; read-out: Percentage of inhibition of cell cultures
Procedure: as §8, §5, §6, §7

Prostate carcinoma = assay: as above; format: cell-based, human; conditions: Homo sapiens, Cases with Kras mutated; 100 micromolar; read-out: Percentage of inhibition of cell cultures
Procedure: as §1, §5, §6
(§9) The percentages of inhibition are expressed in percentage of variation in relation to control ± standard deviation.

[11] = test system: Undifferentiated Pleomorphic Sarcoma (malignant fibrous histiocytoma grade 3); assay: as above; format: cell-based, human; conditions: Homo sapiens, Cases with Kras mutated; 100 micromolar; read-out: Percentage of inhibition of cell cultures
Procedure: as §1, §5, §6, §9

[12] = test system: Melanoma (Nodular Melanoma); assay: as above; format: cell-based, human; conditions: Homo sapiens, Cases with Kras mutated; 100 micromolar; read-out: Percentage of inhibition of cell cultures
Procedure: as §1, §5, §6, §9

[13] = test system: Non Hodgkin Lymphoma B (diffuse B cell lymphoma); assay: as above; format: cell-based, human; conditions: Homo sapiens, B-cell, Cases with Kras mutated; 100 micromolar; read-out: Percentage of inhibition of cell cultures
Procedure: as §1, §5, §6, §9

[14] = test system: Non Hodgkin Lymphoma T (diffuse T cell lymphoma); assay: as above; format: cell-based, human; conditions: Homo sapiens, T-cell, Cases with Kras mutated; 100 micromolar; read-out: Percentage of inhibition of cell cultures
Procedure: as §1, §5, §6, §9

Burkitt Lymphoma [15] = assay: as above; format: cell-based, human; conditions: Homo sapiens, Cases with Kras mutated; 100 micromolar; read-out: Percentage of inhibition of cell cultures
Procedure: as §1, §5, §6, §7

[16] = test system: human primary tumor cells; assay: Inhibition of primary tumor cell cultures vs absence or presence of AKT protein (Example 4; tumor type per table line); format: cell-based; conditions: Non Hodgkin Lymphoma B (diffuse B cell lymphoma); cases with presence of AKT; 100 micromolar
Procedure: as §4
Afterwards, the cells were cultured in presence of several antagonists of the NK1 receptor.
In each case it was determined the presence or absence of the AKT protein effector downstream in the PI3 Kinases pathway.
To determine the presence of the AKT protein in the different cultures Western Blot technique was performed (following the description in example 1-Western Blot section), but using as primary antibody with reference: Akt (pan) (11E7) Rabbit mAb (4685, Cell Signalling).
The antibody against NK1 receptor (Table 26) was used at 1/50 concentration. The percentages of inhibition are expressed in percentage of variation in relation to control ± standard deviation.

[17] = test system: human primary tumor cells; assay: Inhibition of primary tumor cell cultures vs low or high expression of the truncated form of NK1 receptor (Example 5; tumor type per table line); format: cell-based; conditions: 100 micromolar
Procedure: as §1
The presence of the truncated form of NK1 receptor was determined and then cells were cultured in presence of several antagonists of the NK1 receptor.
In each case the presence of the truncated form of the NK1 receptor was determined.
To determine the presence of the truncated form of the gene of NK1 receptor PCR technique was performed (Polymerase Chain Reaction). The extraction of RNA, amplifications of PCR, cycle conditions and quantitative analysis were executed as it has been previously described. The specific primers were the following: For the full-length NK1R receptor (NM_001058.3; forward (SEQ ID NO: 17)-: 5'-[sequence]-3 ' and reverse- (SEQ ID NO:18): 5'-[sequence]-3') and for the truncated NK1receptor (NM_015727.2; forward (SEQ ID NO: 19): 5'-[sequence]-3 and reverse (SEQ ID NO;20): 5'-[sequence]-3').
Cases were distributed in two groups: • Group A -low expression of the truncated form of NK1 receptor- for those cases wherein the expression of the truncated form of NK1 receptor was less than double the expression of the full length form of such receptor. • Group B -high expression of the truncated form of NK1 receptor- for those cases wherein the expression of the truncated form of the NK1 receptor was higher than double the expression of the full length form of such receptor.
The percentages of inhibition are expressed in percentage of variation in relation to the control ± standard deviation.

[18] = NK1 receptor immunostaining Group 1 (less than 20% of the cells)
[19] = NK1 receptor immunostaining Group 2 (20-80% of the cells)
[20] = NK1 receptor immunostaining Group 3 (more than 80% of the cells)
[21] = NK1 receptor immunostaining Intensity grade 1
[22] = NK1 receptor immunostaining Intensity grade 2
[23] = NK1 receptor immunostaining Intensity grade 3

SMILES: C[C@@H](O[C@H]1OCCN(Cc2n[nH]c(=O)[nH]2)[C@H]1c1ccc(F)cc1)c1cc(C(F)(F)F)cc(C(F)(F)F)c1 [Aprepitant]
- inhibition at 1 µM (Gastric carcinoma; [18]): 10 ± 3%
- inhibition at 1 µM (Gastric carcinoma; [19]): 45 ± 3%
- inhibition at 1 µM (Gastric carcinoma; [20]): 92 ± 3%
- inhibition at 1 µM (Gastric carcinoma; [21]): 25 ± 6%
- inhibition at 1 µM (Gastric carcinoma; [22]): 57 ± 5%
- inhibition at 1 µM (Gastric carcinoma; [23]): 96 ± 4%
- inhibition at 1 µM (Colon carcinoma; [18]): 11 ± 4%
- inhibition at 1 µM (Colon carcinoma; [19]): 44 ± 2%
- inhibition at 1 µM (Colon carcinoma; [20]): 95 ± 4%
- inhibition at 1 µM (Colon carcinoma; [21]): 26 ± 6%
- inhibition at 1 µM (Colon carcinoma; [22]): 56 ± 6%
- inhibition at 1 µM (Colon carcinoma; [23]): 95 ± 5%
- inhibition at 1 µM (Breast carcinoma; [18]): 11 ± 1%
- inhibition at 1 µM (Breast carcinoma; [19]): 46 ± 3%
- inhibition at 1 µM (Breast carcinoma; [20]): 94 ± 5%
- inhibition at 1 µM (Breast carcinoma; [21]): 28 ± 6%
- inhibition at 1 µM (Breast carcinoma; [22]): 58 ± 5%
- inhibition at 1 µM (Breast carcinoma; [23]): 95 ± 7%
- inhibition at 1 µM [1, 18]: 10 ± 2%
- inhibition at 1 µM [1, 19]: 48 ± 5%
- inhibition at 1 µM [1, 20]: 95 ± 5%
- inhibition at 1 µM [1, 21]: 27 ± 4%
- inhibition at 1 µM [1, 22]: 56 ± 4%
- inhibition at 1 µM [1, 23]: 95 ± 4%
- inhibition at 1 µM [2, 18]: 10 ± 2%
- inhibition at 1 µM [2, 19]: 42 ± 3%
- inhibition at 1 µM [2, 20]: 97 ± 6%
- inhibition at 1 µM [2, 21]: 29 ± 6%
- inhibition at 1 µM [2, 22]: 56 ± 6%
- inhibition at 1 µM [2, 23]: 96 ± 4%
- inhibition at 1 µM [3, 18]: 10 ± 2%
- inhibition at 1 µM [3, 19]: 45 ± 2%
- inhibition at 1 µM [3, 20]: 97 ± 5%
- inhibition at 1 µM [3, 21]: 26 ± 6%
- inhibition at 1 µM [3, 22]: 57 ± 5%
- inhibition at 1 µM [3, 23]: 95 ± 5%
- inhibition at 1 µM (Fibrosarcoma; [18]): 10 ± 3%
- inhibition at 1 µM (Fibrosarcoma; [19]): 48 ± 3%
- inhibition at 1 µM (Fibrosarcoma; [20]): 96 ± 5%
- inhibition at 1 µM (Fibrosarcoma; [21]): 27 ± 6%
- inhibition at 1 µM (Fibrosarcoma; [22]): 54 ± 5%
- inhibition at 1 µM (Fibrosarcoma; [23]): 95 ± 5%
- inhibition at 1 µM (Neuroblastoma; [18]): 10 ± 3%
- inhibition at 1 µM (Neuroblastoma; [19]): 44 ± 5%
- inhibition at 1 µM (Neuroblastoma; [20]): 97 ± 5%
- inhibition at 1 µM (Neuroblastoma; [21]): 27 ± 6%
- inhibition at 1 µM (Neuroblastoma; [22]): 57 ± 6%
- inhibition at 1 µM (Neuroblastoma; [23]): 97 ± 5%
- inhibition at 1 µM (Non Hodgkin Lymphoma B; [18]): 10 ± 2%
- inhibition at 1 µM (Non Hodgkin Lymphoma B; [19]): 47 ± 4%
- inhibition at 1 µM (Non Hodgkin Lymphoma B; [20]): 96 ± 5%
- inhibition at 1 µM (Non Hodgkin Lymphoma B; [21]): 27 ± 5%
- inhibition at 1 µM (Non Hodgkin Lymphoma B; [22]): 55 ± 5%
- inhibition at 1 µM (Non Hodgkin Lymphoma B; [23]): 97 ± 6%
- inhibition at 1 µM (Burkitt Lymphoma [4]; [18]): 10 ± 2%
- inhibition at 1 µM (Burkitt Lymphoma [4]; [19]): 45 ± 6%
- inhibition at 1 µM (Burkitt Lymphoma [4]; [20]): 96 ± 4%
- inhibition at 1 µM (Burkitt Lymphoma [4]; [21]): 27 ± 5%
- inhibition at 1 µM (Burkitt Lymphoma [4]; [22]): 55 ± 3%
- inhibition at 1 µM (Burkitt Lymphoma [4]; [23]): 92 ± 5%
- inhibition at 1 µM (Hodgkin lymphoma; [18]): 10 ± 3%
- inhibition at 1 µM (Hodgkin lymphoma; [19]): 49 ± 3%
- inhibition at 1 µM (Hodgkin lymphoma; [20]): 94 ± 5%
- inhibition at 1 µM (Hodgkin lymphoma; [21]): 26 ± 5%
- inhibition at 1 µM (Hodgkin lymphoma; [22]): 55 ± 3%
- inhibition at 1 µM (Hodgkin lymphoma; [23]): 92 ± 6%
- inhibition at 100 µM [5]: 24 ± 3%
- inhibition at 100 µM [6]: 22 ± 4%
- inhibition at 100 µM [7]: 22 ± 2%
- inhibition at 100 µM [8]: 24 ± 5%
- inhibition at 100 µM (Endometrium carcinoma): 25 ± 4%
- inhibition at 100 µM [9]: 21 ± 2%
- inhibition at 100 µM [10]: 26 ± 5%
- inhibition at 100 µM (Prostate carcinoma): 24 ± 3%
- inhibition at 100 µM [11]: 24 ± 3%
- inhibition at 100 µM [12]: 26 ± 4%
- inhibition at 100 µM [13]: 27 ± 5%
- inhibition at 100 µM [14]: 25 ± 4%
- inhibition at 100 µM (Burkitt Lymphoma [15]): 24 ± 3%
- Percentage of inhibition of cell cultures [16]: 95±3 percentage
- Percentage of inhibition of cell cultures ([17]; Non Hodgkin Lymphoma B (diffuse B cell lymphoma), Cases with low expression of the truncated form of NK1 receptor (Group A)): 23±4 percentage
- Percentage of inhibition of cell cultures ([17]; Non Hodgkin Lymphoma T (diffuse T cell lymphoma), Cases with high expression of the truncated form of NK1 receptor (Group B)): 98±6 percentage
- Percentage of inhibition of cell cultures ([17]; Ovarian carcinoma (Adenocarcinoma), Cases with low expression of the truncated form of NK1 receptor (Group A)): 29±3 percentage
